The test system of this test is HCT-116 Firefly-luciferase reporter cells. Put plainly: Cellular c-MYC Reporter Assay. The class given is cell-based. Conditions: Homo sapiens; untitled table following Table 8a; HCT-116 Firefly-luciferase reporter cells, 24 h; read-out: pIC50 (converted). An outline of the steps: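 Compound exposure lasted 24 h at 37 °C, 5% CO2, in complete McCoy's 5A medium containing 0.2% DMSO, beginning 4–6 h post-seeding (5e4 cells/mL). Firefly luciferase signal measured by luminescence after 10 min ONE-Glo development at room temperature.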
A general note: A reporter such as luciferase makes a cellular process visible.
Regarding `Cc1cccc2ccnc(N(C(=O)c3ccc(Nc4nc5ccccn5n4)cc3F)[C@@H]3CCCNC3)c12` [Example 169, (R)-4-([1,2,4]triazolo[1,5-a]pyridin-2-ylamino)-2-fluoro-N-(8-methylisoquinolin-1-yl)-N-(piperidin-3-yl)benzamide], the IC50 is 316 nM.

With `Cc1cccc2ccnc(N(C(=O)c3ccc(-n4nnc5ccc(C(N)=O)nc54)cc3F)[C@@H]3CCCNC3)c12` [Example 170, (R)-3-(3-fluoro-4-((8-methylisoquinolin-1-yl)(piperidin-3-yl)carbamoyl)phenyl)-3H-[1,2,3]triazolo[4,5-b]pyridine-5-carboxamide], the IC50 was 56.2 nM.

Take `Cc1cccc2ccnc(N(C(=O)c3ccc(-n4nnc5ccc(-c6ccccc6)nc54)cc3F)[C@@H]3CCCNC3)c12` [Example 171, (R)-2-fluoro-N-(8-methylisoquinolin-1-yl)-4-(5-phenyl-3H-[1,2,3]triazolo[4,5-b]pyridin-3-yl)-N-(piperidin-3-yl)benzamideamide]: the IC50 is 288 nM.

For the compound `Cc1cccc2ccnc(N(C(=O)c3ccc(N4CC(C)NC4=O)cc3F)[C@@H]3CCCNC3)c12` (stereo partly drawn) [Example 172, 2-fluoro-4-(4-methyl-2-oxoimidazolidin-1-yl)-N-(8-methylisoquinolin-1-yl)-N—((R)-piperidin-3-yl)benzamide], the IC50 is 6030 nM.

As to `Cc1cccc2ccnc(N(C(=O)N3CCC(c4nn(C)c(=O)o4)CC3)[C@@H]3CCCNC3)c12` [Example 174, (R)-4-(4-methyl-5-oxo-4,5-dihydro-1,3,4-oxadiazol-2-yl)-N-(8 methylisoquinolin-1-yl)-N-(piperidin-3-yl)piperidine-1-carboxamide], the IC50 is 3550 nM.

As to `Cc1cccc2ccnc(N(C(=O)c3ccc(-n4nnc5cccnc54)cc3F)[C@H]3CNCC(F)(F)C3)c12` [Example 175, (R)-4-(3H-[1,2,3]triazolo[4,5-b]pyridin-3-yl)-N-(5,5-difluoropiperidin-3-yl)-2-fluoro-N-(8-methylisoquinolin-1-yl)benzamide], the IC50 is 9330 nM.

Regarding `O=C(c1ccc(-n2nnc3cccnc32)cc1F)N(c1ncccc1-c1cn[nH]c1)[C@@H]1CCCNC1` [Example 176, (R)—N-(3-(1H-pyrazol-4-yl)pyridin-2-yl)-4-(3H-[1,2,3]triazolo[4,5-b]pyridin-3-yl)-2-fluoro-N-(piperidin-3-yl)benzamide], the IC50 was 933 nM.

Consider `O=C(c1ccc(-n2nnc3cccnc32)cc1F)N(c1ncccc1-c1ccsc1)[C@@H]1CCCNC1` [Example 177, (R)-4-(3H-[1,2,3]triazolo[4,5-b]pyridin-3-yl)-2-fluoro-N-(piperidin-3-yl)-N-(3-(thiophen-3-yl)pyridin-2-yl)benzamide], for which the IC50 is 355 nM.

As to `Cc1nnn(-c2ccc(C(=O)N(c3nccc4cccc(C)c34)[C@@H]3CCCNC3)cc2)n1` [Example 179, (R)-4-(5-methyl-2H-tetrazol-2-yl)-N-(8-methylisoquinolin-1-yl)-N-(piperidin-3-yl)benzamide], the IC50 is 72.4 nM.

With `Cc1ccnc(N(C)c2ccc(C(=O)N(c3nccc4cccc(C)c34)[C@@H]3CCCNC3)c(F)c2)n1` [Example 180, (R)-2-fluoro-4-(methyl (4-methylpyrimidin-2-yl)amino)-N-(8-methylisoquinolin-1-yl)-N-(piperidin-3-yl)benzamide], the IC50 was 3390 nM.

As for `Cc1cc(C2CCN(C(=O)N(c3nccc4cccc(C)c34)[C@@H]3CCCCNC3)CC2)on1` [Example 181, (R)—N-(azepan-3-yl)-N-(8-methylisoquinolin-1-yl)-4-(3-methylisoxazol-5-yl)piperidine-1-carboxamide], the IC50 was 11000 nM.

Take `Cc1nccnc1-c1ccc(C(=O)N(c2nccc3cccc(Cl)c23)[C@@H]2CCCNC2)c(F)c1` [Example 182, (R)—N-(8-chloroisoquinolin-1-yl)-2-fluoro-4-(3-methylpyrazin-2-yl)-N-(piperidin-3-yl)benzamide]: the IC50 was 891 nM.

Take `Cc1cccc2ccnc(N(C(=O)c3ccc(Nc4ncccn4)cn3)[C@@H]3CCCNC3)c12` [Example 184, (R)—N-(8-methylisoquinolin-1-yl)-N-(piperidin-3-yl)-5-(pyrimidin-2-ylamino) picolinamide]: the IC50 is 1550 nM.

Regarding `Cc1cccc2ccnc(N(C(=O)c3ccc(Nc4ncccn4)cc3F)[C@@H]3CCCCNC3)c12` [Example 185, (R)—N-(azepan-3-yl)-2-fluoro-N-(8-methylisoquinolin-1-yl)-4-(pyrimidin-2-ylamino)benzamide], the IC50 was 3310 nM.

On to `Cc1cnc(Nc2ccc(C(=O)N(c3nccc4cccc(C)c34)[C@@H]3CCCNC3)c(F)c2)nc1` [Example 186, (R)-2-fluoro-N-(8-methylisoquinolin-1-yl)-4-((5-methylpyrimidin-2-yl)amino)-N-(piperidin-3-yl)benzamide], for which the IC50 was 200 nM.

Take `COc1ccc2nnn(-c3ccc(C(=O)N(c4nccc5cccc(C)c45)[C@@H]4CCCNC4)c(F)c3)c2n1` [Example 187, (R)-2-fluoro-4-(5-methoxy-3H-[1,2,3]triazolo[4,5-b]pyridin-3-yl)-N-(8-methylisoquinolin-1-yl)-N-(piperidin-3-yl)benzamide]: the IC50 was 50.1 nM.

`Cc1cccc2ccnc(N(C(=O)N3CCC(Oc4ccccc4)CC3)[C@@H]3CCCNC3)c12` [Example 189, (R)—N-(8-methylisoquinolin-1-yl)-4-phenoxy-N-(piperidin-3-yl)-1-carboxamide]: the IC50 is 5620 nM.

Turning to `CC1(c2ccno2)CCN(C(=O)N(c2cc3ccccc3cn2)[C@@H]2CCCNC2)CC1` [Example 190, (R)—N-(isoquinolin-3-yl)-4-(isoxazol-5-yl)-4-methyl-N-(piperidin-3-yl)piperidine-1-carboxamide], the IC50 is 5890 nM.

Consider `Cc1cccc2ccnc(N(C(=O)c3ccc(-n4nnc5ccc(C#N)nc54)cc3F)[C@@H]3CCCNC3)c12` [Example 191, (R)-4-(5-cyano-3H-[1,2,3]triazolo[4,5-b]pyridin-3-yl)-2-fluoro-N-(8-methylisoquinolin-1-yl)-N-(piperidin-3-yl)benzamide], for which the IC50 was 10.7 nM.

In the case of `Cc1cccc2ccnc(N(C(=O)c3ccc(-n4nnc5ccc(Cl)nc54)cc3F)[C@@H]3CCCNC3)c12` [Example 192, (R)-4-(5-chloro-3H-[1,2,3]triazolo[4,5-b]pyridin-3-yl)-2-fluoro-N-(8-methylisoquinolin-1-yl)-N-(piperidin-3-yl)benzamide], the IC50 was 170 nM.

As to `Cc1cccc2ccnc(N(C(=O)c3ccc(-c4cn(C)nn4)cc3F)[C@@H]3CCCNC3)c12` [Example 193, (R)-2-fluoro-4-(1-methyl-1H-1,2,3-triazol-4-yl)-N-(8-methylisoquinolin-1-yl)-N-(piperidin-3-yl)benzamide], the IC50 is 79.4 nM.

For `Cc1cccc2ccnc(N(C(=O)c3ccc(-n4nccn4)cc3F)[C@@H]3CCCNC3)c12` [Example 194, (R)-2-fluoro-N-(8-methylisoquinolin-1-yl)-N-(piperidin-3-yl)-4-(2H-1,2,3-triazol-2-yl)benzamide], the IC50 was 1200 nM.

Turning to `Cc1nnn(-c2ccc(C(=O)N(c3nccc4cccc(C)c34)[C@@H]3CCCNC3)c(F)c2)n1` [Example 195, (R)-2-fluoro-4-(5-methyl-2H-tetrazol-2-yl)-N-(8-methylisoquinolin-1-yl)-N-(piperidin-3-yl) benzamide], the IC50 was 87.1 nM.

Values taken from patent US20240400555A1 (Initial Therapeutics, Inc., priority 2023, published 2024).
